Reference: ChEMBL document CHEMBL1139045, “Design and synthesis of a novel class of dual PPARgamma/delta agonists” (Bioorg Med Chem Lett, 2007)

How the values were obtained:
[1] = target: T1, Peroxisome proliferator-activated receptor alpha (Homo sapiens, UniProt Q07869)
T1 sequence (Q07869 whole entry): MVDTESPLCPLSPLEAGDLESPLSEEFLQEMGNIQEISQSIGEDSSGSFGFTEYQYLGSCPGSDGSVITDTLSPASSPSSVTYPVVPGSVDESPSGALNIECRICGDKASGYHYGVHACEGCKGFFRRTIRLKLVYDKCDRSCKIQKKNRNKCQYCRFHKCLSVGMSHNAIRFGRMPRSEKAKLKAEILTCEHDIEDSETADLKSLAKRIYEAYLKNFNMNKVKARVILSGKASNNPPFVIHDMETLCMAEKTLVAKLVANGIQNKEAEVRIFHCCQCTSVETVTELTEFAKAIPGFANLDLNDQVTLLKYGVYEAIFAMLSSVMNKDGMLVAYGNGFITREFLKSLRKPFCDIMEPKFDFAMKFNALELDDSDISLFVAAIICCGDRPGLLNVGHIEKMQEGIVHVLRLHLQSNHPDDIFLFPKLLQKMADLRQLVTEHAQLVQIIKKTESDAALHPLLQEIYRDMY

[2] = target: T1, Peroxisome proliferator-activated receptor alpha; assay type: functional, cell-based, CV-1
[3] = in vivo; settings: Sprague-Dawley, rat, po, 12 mg/kg
[4] = in vivo; settings: Sprague-Dawley, rat, po, 12 mg/kg; remark: listed apart in the source
[5] = target: T2, Peroxisome proliferator-activated receptor delta (Homo sapiens, UniProt Q03181)
T2 sequence (Q03181 whole entry): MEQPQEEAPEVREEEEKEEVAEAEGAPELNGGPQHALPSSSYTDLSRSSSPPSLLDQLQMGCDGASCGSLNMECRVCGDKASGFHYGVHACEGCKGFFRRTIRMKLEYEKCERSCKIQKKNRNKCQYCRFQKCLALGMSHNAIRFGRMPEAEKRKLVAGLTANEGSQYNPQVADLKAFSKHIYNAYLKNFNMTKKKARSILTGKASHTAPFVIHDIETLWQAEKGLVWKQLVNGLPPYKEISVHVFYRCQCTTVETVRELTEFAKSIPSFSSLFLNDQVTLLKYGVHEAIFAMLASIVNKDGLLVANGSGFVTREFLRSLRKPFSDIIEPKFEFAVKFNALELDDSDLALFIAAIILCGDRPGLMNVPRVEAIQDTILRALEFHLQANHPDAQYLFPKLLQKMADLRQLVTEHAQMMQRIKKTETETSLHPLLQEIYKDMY

[6] = in vivo; settings: Sprague-Dawley, rat, po, 12 mg/kg; remark: listed apart in the source
[7] = in vivo; settings: Sprague-Dawley, rat, iv, 1 mg/kg
[8] = target: T2, Peroxisome proliferator-activated receptor delta; assay type: functional, cell-based, CV-1
[9] = in vivo; settings: db/db, mouse

| IC50 [1] [nM] | EC50 [2] [nM] | IC50 [5] [nM] | EC50 [8] [nM] | also measured | SMILES |
| --- | --- | --- | --- | --- | --- |
| 10400 | 2890 | – | – | – | CCc1ccc(O[C@H](C)CCOc2ccc(CCC(=O)O)c(C)c2)c(-c2ncco2)c1 |
| 7350 | – | 3 | 7 | half-life [3]: 3 h; AUC [4]: 75500 ng·h/mL; bioavailability [6]: 71%; clearance [7]: 1.9 mL/min/kg | CCc1ccc(O[C@H](C)CCOc2ccc(CCC(=O)O)c(CC)c2)c(-c2ccccn2)c1 |
| 5950 | – | – | – | – | CCc1ccc(O[C@H](C)CCOc2ccc(CCC(=O)O)c(C)c2)c(-c2ccsc2)c1 |
| – | 2900 | – | – | – | CCc1ccc(O[C@H](C)CCOc2ccc(CCC(=O)O)c(C)c2)c(-c2cccnc2)c1 |
| 4500 | 2800 | – | – | – | CCc1ccc(O[C@H](C)CCOc2ccc(CCC(=O)O)c(C)c2)c(-c2ccco2)c1 |
| 6090 | 2630 | 3 | 6 | concentration at 1 h [9]: 4200 ng/mL | CCc1cc(OCC[C@@H](C)Oc2ccc(C(F)(F)F)cc2-c2ccccn2)ccc1CCC(=O)O |
| 5880 | 2340 | 4 | 6 | – | Cc1cc(OCC[C@@H](C)Oc2ccc(C(F)(F)F)cc2-c2ccccn2)ccc1CCC(=O)O |
| 4990 | 2810 | – | – | – | CCc1ccc(O[C@H](C)CCOc2ccc(CCC(=O)O)c(C)c2)c(-c2cocn2)c1 |
| 4100 | 2680 | – | – | – | CCc1ccc(O[C@H](C)CCOc2ccc(CCC(=O)O)c(C)c2)c(-c2cscn2)c1 |
